Results as given in PubChem BioAssay (NCI).
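Briefly, cells in 96-well plates were exposed to five compound concentrations for 48 h, and endpoints were estimated by linear interpolation. At the GI50, growth is halved. At the TGI there is no net growth.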

What was measured:
Experiment in all cases: NCI anticancer screen, dose series, 48 h
MDA-MB-435 = system: MDA-MB-435
HL-60(TB) leukemia = system: HL-60(TB) leukemia
SR leukemia = system: SR leukemia
PC-3 prostate = system: PC-3 prostate
TK-10 renal = system: TK-10 renal
SK-OV-3 ovarian = system: SK-OV-3 ovarian
LOX IMVI melanoma = system: LOX IMVI melanoma
A549 NSCLC = system: A549 NSCLC
HS 578T breast = system: HS 578T breast
OVCAR-8 ovarian = system: OVCAR-8 ovarian
HOP-92 NSCLC = system: HOP-92 NSCLC
HCT-116 colon = system: HCT-116 colon
MCF7 breast = system: MCF7 breast
SNB-19 CNS = system: SNB-19 CNS
NCI-H23 lung = system: NCI-H23 lung
NCI-H226 lung = system: NCI-H226 lung
MALME-3M melanoma = system: MALME-3M melanoma
SF-295 CNS = system: SF-295 CNS
CCRF-CEM leukemia = system: CCRF-CEM leukemia
OVCAR-4 ovarian = system: OVCAR-4 ovarian
M14 melanoma = system: M14 melanoma
UACC-62 melanoma = system: UACC-62 melanoma
SF-268 CNS = system: SF-268 CNS
T-47D breast = system: T-47D breast
COLO 205 colon = system: COLO 205 colon
RPMI-8226 leukemia = system: RPMI-8226 leukemia
ACHN renal = system: ACHN renal
U251 CNS = system: U251 CNS
UO-31 renal = system: UO-31 renal
K-562 leukemia = system: K-562 leukemia
SW-620 colon = system: SW-620 colon
786-0 renal = system: 786-0 renal
SK-MEL-28 melanoma = system: SK-MEL-28 melanoma
MOLT-4 leukemia = system: MOLT-4 leukemia
HT29 colon = system: HT29 colon
NCI/ADR-RES ovarian = system: NCI/ADR-RES ovarian
RXF 393 renal = system: RXF 393 renal
NCI-H460 lung = system: NCI-H460 lung
UACC-257 melanoma = system: UACC-257 melanoma
EKVX NSCLC = system: EKVX NSCLC
HCC-2998 colon = system: HCC-2998 colon
NCI-H522 lung = system: NCI-H522 lung
SF-539 CNS = system: SF-539 CNS
BT-549 breast = system: BT-549 breast
A498 renal = system: A498 renal
OVCAR-3 ovarian = system: OVCAR-3 ovarian
SNB-75 CNS = system: SNB-75 CNS
SK-MEL-5 melanoma = system: SK-MEL-5 melanoma
DU-145 prostate = system: DU-145 prostate
SN12C renal = system: SN12C renal
OVCAR-5 ovarian = system: OVCAR-5 ovarian
HOP-62 NSCLC = system: HOP-62 NSCLC
HCT-15 colon = system: HCT-15 colon
IGROV1 ovarian = system: IGROV1 ovarian
MDA-MB-231 breast = system: MDA-MB-231 breast
KM12 colon = system: KM12 colon
SK-MEL-2 melanoma = system: SK-MEL-2 melanoma

With COc1ccc(-c2cc(C(=O)N3N=C(c4ccc(N)cc4)CC3c3ccc(Cl)cc3)c3ccccc3n2)cc1 (centres undefined) the GI50 (MDA-MB-435) was 0.305 µM, the TGI (MDA-MB-435) was 2.22 µM and the GI50 (HL-60(TB) leukemia) was 2.54 µM. For the same compound, the TGI (HL-60(TB) leukemia) was greater than 100 µM, the GI50 (SR leukemia) was 0.595 µM and the TGI (SR leukemia) was greater than 100 µM. It also gave a GI50 (PC-3 prostate) of 2.03 µM, a TGI (PC-3 prostate) greater than 100 µM and a GI50 (TK-10 renal) of 52.3 µM. It also gave a TGI (TK-10 renal) greater than 100 µM, a GI50 (SK-OV-3 ovarian) of 3.32 µM and a TGI (SK-OV-3 ovarian) greater than 100 µM. The GI50 (LOX IMVI melanoma) was 1.56 µM, the TGI (LOX IMVI melanoma) was greater than 100 µM and the GI50 (A549 NSCLC) was 2.33 µM. The TGI (A549 NSCLC) was greater than 100 µM, the GI50 (HS 578T breast) was 1.05 µM and the TGI (HS 578T breast) was greater than 100 µM. For the same compound, the GI50 (OVCAR-8 ovarian) was 4.16 µM, the TGI (OVCAR-8 ovarian) was greater than 100 µM and the GI50 (HOP-92 NSCLC) was 1.92 µM. The TGI (HOP-92 NSCLC) was greater than 100 µM, the GI50 (HCT-116 colon) was 1.41 µM and the TGI (HCT-116 colon) was greater than 100 µM. For the same compound, the GI50 (MCF7 breast) was 0.442 µM, the TGI (MCF7 breast) was greater than 100 µM and the GI50 (SNB-19 CNS) was 5.54 µM. The TGI (SNB-19 CNS) was greater than 100 µM, the GI50 (NCI-H23 lung) was 3.14 µM and the TGI (NCI-H23 lung) was greater than 100 µM. The GI50 (NCI-H226 lung) was 7.54 µM, the TGI (NCI-H226 lung) was greater than 100 µM and the GI50 (MALME-3M melanoma) was greater than 100 µM. The TGI (MALME-3M melanoma) was greater than 100 µM, the GI50 (SF-295 CNS) was 0.54 µM and the TGI (SF-295 CNS) was greater than 100 µM. It also gave a GI50 (CCRF-CEM leukemia) of 5.84 µM, a TGI (CCRF-CEM leukemia) greater than 100 µM and a GI50 (OVCAR-4 ovarian) of 1.82 µM. For the same compound, the TGI (OVCAR-4 ovarian) was greater than 100 µM, the GI50 (M14 melanoma) was 1.16 µM and the TGI (M14 melanoma) was greater than 100 µM. For the same compound, the GI50 (UACC-62 melanoma) was 0.556 µM, the TGI (UACC-62 melanoma) was greater than 100 µM and the GI50 (SF-268 CNS) was 2.19 µM. For the same compound, the TGI (SF-268 CNS) was greater than 100 µM, the GI50 (T-47D breast) was 2.71 µM and the TGI (T-47D breast) was greater than 100 µM. The GI50 (COLO 205 colon) was 1.99 µM, the TGI (COLO 205 colon) was 6.58 µM and the GI50 (RPMI-8226 leukemia) was 3.86 µM. It also gave a TGI (RPMI-8226 leukemia) greater than 100 µM, a GI50 (ACHN renal) of 1.47 µM and a TGI (ACHN renal) greater than 100 µM. For the same compound, the GI50 (U251 CNS) was 2.18 µM, the TGI (U251 CNS) was greater than 100 µM and the GI50 (UO-31 renal) was 1.55 µM. The TGI (UO-31 renal) was greater than 100 µM, the GI50 (K-562 leukemia) was 1.05 µM and the TGI (K-562 leukemia) was greater than 100 µM. For the same compound, the GI50 (SW-620 colon) was 1.24 µM, the TGI (SW-620 colon) was greater than 100 µM and the GI50 (786-0 renal) was 1.84 µM. It also gave a TGI (786-0 renal) greater than 100 µM, a GI50 (SK-MEL-28 melanoma) of 3.78 µM and a TGI (SK-MEL-28 melanoma) greater than 100 µM. For the same compound, the GI50 (MOLT-4 leukemia) was 3.3 µM, the TGI (MOLT-4 leukemia) was greater than 100 µM and the GI50 (HT29 colon) was 1.13 µM. The TGI (HT29 colon) was greater than 100 µM, the GI50 (NCI/ADR-RES ovarian) was 0.519 µM and the TGI (NCI/ADR-RES ovarian) was greater than 100 µM. The GI50 (RXF 393 renal) was 0.698 µM, the TGI (RXF 393 renal) was 8.22 µM and the GI50 (NCI-H460 lung) was 1.89 µM. For the same compound, the TGI (NCI-H460 lung) was greater than 100 µM, the GI50 (UACC-257 melanoma) was greater than 100 µM and the TGI (UACC-257 melanoma) was greater than 100 µM. It also gave a GI50 (EKVX NSCLC) of 3.78 µM, a TGI (EKVX NSCLC) greater than 100 µM and a GI50 (HCC-2998 colon) of 3.4 µM. The TGI (HCC-2998 colon) was greater than 100 µM, the GI50 (NCI-H522 lung) was 0.307 µM and the TGI (NCI-H522 lung) was 1.8 µM. It also gave a GI50 (SF-539 CNS) of 1.41 µM, a TGI (SF-539 CNS) greater than 100 µM and a GI50 (BT-549 breast) of 2.04 µM. It also gave a TGI (BT-549 breast) of 73 µM, a GI50 (A498 renal) of 0.375 µM and a TGI (A498 renal) of 0.914 µM. The GI50 (OVCAR-3 ovarian) was 0.462 µM, the TGI (OVCAR-3 ovarian) was 8.55 µM and the GI50 (SNB-75 CNS) was 0.371 µM. For the same compound, the TGI (SNB-75 CNS) was 8.66 µM, the GI50 (SK-MEL-5 melanoma) was 0.701 µM and the TGI (SK-MEL-5 melanoma) was 9.25 µM. For the same compound, the GI50 (DU-145 prostate) was 3.16 µM, the TGI (DU-145 prostate) was greater than 100 µM and the GI50 (SN12C renal) was 4.27 µM. The TGI (SN12C renal) was greater than 100 µM, the GI50 (OVCAR-5 ovarian) was 5.51 µM and the TGI (OVCAR-5 ovarian) was greater than 100 µM. It also gave a GI50 (HOP-62 NSCLC) of 3.21 µM, a TGI (HOP-62 NSCLC) greater than 100 µM and a GI50 (HCT-15 colon) of 1.03 µM. The TGI (HCT-15 colon) was greater than 100 µM, the GI50 (IGROV1 ovarian) was 4.98 µM and the TGI (IGROV1 ovarian) was greater than 100 µM. It also gave a GI50 (MDA-MB-231 breast) of 3.28 µM, a TGI (MDA-MB-231 breast) greater than 100 µM and a GI50 (KM12 colon) of 1.15 µM. The TGI (KM12 colon) was greater than 100 µM, the GI50 (SK-MEL-2 melanoma) was 2.03 µM and the TGI (SK-MEL-2 melanoma) was greater than 100 µM.
